Measured values as given in PubChem BioAssay (NCI).
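Tested at 5 concentrations; 48 h exposure; 96-well plates; endpoints linearly interpolated, else capped at highest concentration. TGI marks complete inhibition of growth.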

What was measured:
Assay in all cases: NCI-60 cell line screen, 48 h
DU-145 prostate = test system: DU-145 prostate
SK-MEL-2 melanoma = test system: SK-MEL-2 melanoma
OVCAR-8 ovarian = test system: OVCAR-8 ovarian
TK-10 renal = test system: TK-10 renal
SK-OV-3 ovarian = test system: SK-OV-3 ovarian
SR leukemia = test system: SR leukemia

`Clc1ccc2c(c1)CC1C[N+]3=C(CCCC3)C1=C2` (stereo unspecified) gave a TGI (DU-145 prostate) greater than 100 µM, a TGI (SK-MEL-2 melanoma) greater than 100 µM and a TGI (OVCAR-8 ovarian) greater than 100 µM. It also gave a TGI (TK-10 renal) greater than 100 µM and a TGI (SK-OV-3 ovarian) greater than 100 µM.

Work on `COc1cc(C2c3[nH]c4ccc(F)cc4c3C[C@H]3COC(=O)N23)cc(OC)c1O` (stereo partly specified) yielded a TGI (DU-145 prostate) of 39.2 µM, a TGI (SK-MEL-2 melanoma) of 60.3 µM and a TGI (OVCAR-8 ovarian) of 39.3 µM. The TGI (SK-OV-3 ovarian) was 57.2 µM.

`Cc1nc(N)c(N2CCN(Cc3ccccc3)CC2)c(=O)[nH]1` showed a TGI (DU-145 prostate) greater than 100 µM, a TGI (SK-MEL-2 melanoma) greater than 100 µM and a TGI (OVCAR-8 ovarian) greater than 100 µM. For the same compound, the TGI (SR leukemia) was greater than 100 µM and the TGI (TK-10 renal) was greater than 100 µM.

`COc1cc(CNC(=O)[C@H](Cc2ccc(O)cn2)NC(C)=O)cc(OC)c1` gave a TGI (DU-145 prostate) greater than 100 µM, a TGI (SK-MEL-2 melanoma) greater than 100 µM and a TGI (TK-10 renal) greater than 100 µM. The TGI (SK-OV-3 ovarian) was greater than 100 µM.

With `COc1cc(-c2c3c([nH]c(=O)c2C#N)-c2cc([N+](=O)[O-])ccc2CCC3)cc(OC)c1OC` the TGI (DU-145 prostate) was greater than 100 µM, the TGI (SK-MEL-2 melanoma) was 44.3 µM and the TGI (OVCAR-8 ovarian) was greater than 100 µM. It also gave a TGI (TK-10 renal) greater than 100 µM and a TGI (SK-OV-3 ovarian) of 66.4 µM.

`CC(C)c1ccc2c(c1)C=C1OC(=O)[C@]3(C)CCC[C@@]2(C)C13` (stereo partly specified) gave a TGI (DU-145 prostate) greater than 100 µM, a TGI (OVCAR-8 ovarian) greater than 100 µM and a TGI (SR leukemia) greater than 100 µM. The TGI (TK-10 renal) was greater than 100 µM and the TGI (SK-OV-3 ovarian) was greater than 100 µM.

`CNC(=O)c1n[nH]n(Cc2ccccc2)c1=S` showed a TGI (DU-145 prostate) greater than 100 µM, a TGI (SK-MEL-2 melanoma) greater than 100 µM and a TGI (OVCAR-8 ovarian) greater than 100 µM. The TGI (TK-10 renal) was greater than 100 µM and the TGI (SK-OV-3 ovarian) was greater than 100 µM.

`CCN(CC)c1nc(N(C)C)c2ccc(OC)cc2n1` gave a TGI (SK-MEL-2 melanoma) of 36.5 µM, a TGI (OVCAR-8 ovarian) greater than 100 µM and a TGI (SR leukemia) of 31.4 µM. The TGI (TK-10 renal) was greater than 100 µM and the TGI (SK-OV-3 ovarian) was 52.5 µM.

For `COc1ccc(N=Nc2c(C)c(C#N)c(=S)n(C3OC(COC(C)=O)C(OC(C)=O)C(OC(C)=O)C3OC(C)=O)c2-c2ccccc2)cc1` (stereo unspecified), the TGI (DU-145 prostate) was 19.6 µM, the TGI (SK-MEL-2 melanoma) was 22.8 µM and the TGI (SR leukemia) was greater than 100 µM. The TGI (TK-10 renal) was 34.2 µM.

Work on `COC1=CC(=O)c2c(O)ccc(O)c2C1=O` yielded a TGI (DU-145 prostate) of 3.18 µM, a TGI (OVCAR-8 ovarian) of 55.5 µM and a TGI (TK-10 renal) of 28.3 µM. It also gave a TGI (SK-OV-3 ovarian) of 33 µM.

`COc1ccc(C(=O)/C=C/c2ccc(OCC(=O)O)cc2)cc1` showed a TGI (DU-145 prostate) greater than 100 µM, a TGI (SK-MEL-2 melanoma) greater than 100 µM and a TGI (OVCAR-8 ovarian) greater than 100 µM. The TGI (SR leukemia) was greater than 100 µM and the TGI (TK-10 renal) was greater than 100 µM.

`O=C(O)c1cncc(C(=O)O)c1` was tested, and the TGI (DU-145 prostate) was greater than 100 µM, the TGI (SK-MEL-2 melanoma) was greater than 100 µM and the TGI (OVCAR-8 ovarian) was greater than 100 µM. It also gave a TGI (TK-10 renal) greater than 100 µM and a TGI (SK-OV-3 ovarian) greater than 100 µM.

For `N#CC(C#N)=Cc1ccc(C=C2SC3=C(SCCS3)S2)s1`, the TGI (DU-145 prostate) was greater than 100 µM, the TGI (SK-MEL-2 melanoma) was greater than 100 µM and the TGI (OVCAR-8 ovarian) was greater than 100 µM. For the same compound, the TGI (TK-10 renal) was 68.6 µM and the TGI (SK-OV-3 ovarian) was greater than 100 µM.
